Measured values from US20260262643A1, “HERBICIDAL BENZOXAZINES” (FMC CORPORATION, priority 2022, published 2026).

Experiments:
oat, wild [1] = assay: Test C preemergence; format: in vivo, Avena fatua; conditions: preemergence, 0 to 100 scale (0 no effect, 100 complete control)
Summary of the method: (§1)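 Visual injury score, 0–100 (100 = complete control), taken 10 days after treatment relative to untreated controls. Pre: directed spray onto soil over sown seeds. Post: foliar spray at one- to two-leaf stage, 2–10 cm. Solvent/surfactant formulation; loam–sand soil; greenhouse.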

pigweed, palmer [2] = assay: Test C preemergence; format: in vivo, Amaranthus palmeri; conditions: preemergence, 0 to 100 scale (0 no effect, 100 complete control)
Summary of the method: as §1

pigweed, palmer [3] = assay: Test C postemergence; format: in vivo, Amaranthus palmeri; conditions: 10 days, 0 to 100 scale (0 no effect, 100 complete control)
Summary of the method: as §1

kochia [4] = assay: Test C postemergence; format: in vivo, Bassia scoparia; conditions: 10 days, 0 to 100 scale (0 no effect, 100 complete control)
Summary of the method: as §1

green foxtail [5] = assay: Test C postemergence; format: in vivo, Setaria viridis; conditions: 10 days, 0 to 100 scale (0 no effect, 100 complete control)
Summary of the method: as §1

barnyardgrass [6] = assay: Test C preemergence; format: in vivo, Echinochloa crusgalli; conditions: preemergence, 0 to 100 scale (0 no effect, 100 complete control)
Summary of the method: as §1

wheat [7] = assay: Test C preemergence; format: in vivo, Triticum aestivum; conditions: preemergence, 0 to 100 scale (0 no effect, 100 complete control)
Summary of the method: as §1

barnyardgrass [8] = assay: Test D flooded paddy test; format: in vivo, Echinochloa crus-galli; conditions: 250 g ai/ha, applied to paddy water, visual rating after 13 to 14 days, scale 0 to 100 (0 no effect, 100 complete control)
Summary of the method: (§2)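 Compounds go straight into paddy water over 2-leaf plants in pots flooded to 3 cm. Greenhouse holding lasts 13 to 14 days. Injury is scored by eye against controls from 0 (none) to 100 (complete control).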

sedge, umbrella = assay: Test D flooded paddy test; format: in vivo, Cyperus difformis; conditions: 250 g ai/ha, applied to paddy water, visual rating after 13 to 14 days, scale 0 to 100 (0 no effect, 100 complete control)
Summary of the method: as §2

rice = assay: Test D flooded paddy test; format: in vivo, Oryza sativa; conditions: 250 g ai/ha, applied to paddy water, visual rating after 13 to 14 days, scale 0 to 100 (0 no effect, 100 complete control)
Summary of the method: as §2

ryegrass, Italian [9] = assay: Test C preemergence; format: in vivo, Lolium multiflorum; conditions: preemergence, 0 to 100 scale (0 no effect, 100 complete control)
Summary of the method: as §1

soybean [10] = assay: Test C preemergence; format: in vivo, Glycine max; conditions: preemergence, 0 to 100 scale (0 no effect, 100 complete control)
Summary of the method: as §1

green foxtail [11] = assay: Test C preemergence; format: in vivo, Setaria viridis; conditions: preemergence, 0 to 100 scale (0 no effect, 100 complete control)
Summary of the method: as §1

kochia [12] = assay: Test C preemergence; format: in vivo, Bassia scoparia; conditions: preemergence, 0 to 100 scale (0 no effect, 100 complete control)
Summary of the method: as §1

ducksalad = assay: Test D flooded paddy test; format: in vivo, Heteranthera limosa; conditions: 250 g ai/ha, applied to paddy water, visual rating after 13 to 14 days, scale 0 to 100 (0 no effect, 100 complete control)
Summary of the method: as §2

ragweed [13] = assay: Test C preemergence; format: in vivo, Ambrosia artemisiifolia; conditions: preemergence, 0 to 100 scale (0 no effect, 100 complete control)
Summary of the method: as §1

barnyardgrass [14] = assay: Test C postemergence; format: in vivo, Echinochloa crusgalli; conditions: 10 days, 0 to 100 scale (0 no effect, 100 complete control)
Summary of the method: as §1

blackgrass [15] = assay: Test C preemergence; format: in vivo, Alopecurus myosuroides; conditions: preemergence, 0 to 100 scale (0 no effect, 100 complete control)
Summary of the method: as §1

horseweed = assay: Test C postemergence; format: in vivo, Erigeron canadensis; conditions: 10 days, 0 to 100 scale (0 no effect, 100 complete control)
Summary of the method: as §1

ryegrass, Italian [16] = assay: Test C postemergence; format: in vivo, Lolium multiflorum; conditions: 10 days, 0 to 100 scale (0 no effect, 100 complete control)
Summary of the method: as §1

ragweed [17] = assay: Test C postemergence; format: in vivo, Ambrosia artemisiifolia; conditions: 10 days, 0 to 100 scale (0 no effect, 100 complete control)
Summary of the method: as §1

soybean [18] = assay: Test C postemergence; format: in vivo, Glycine max; conditions: 10 days, 0 to 100 scale (0 no effect, 100 complete control)
Summary of the method: as §1

oat, wild [19] = assay: Test C postemergence; format: in vivo, Avena fatua; conditions: 10 days, 0 to 100 scale (0 no effect, 100 complete control)
Summary of the method: as §1

blackgrass [20] = assay: Test C postemergence; format: in vivo, Alopecurus myosuroides; conditions: 10 days, 0 to 100 scale (0 no effect, 100 complete control)
Summary of the method: as §1

wheat [21] = assay: Test C postemergence; format: in vivo, Triticum aestivum; conditions: 10 days, 0 to 100 scale (0 no effect, 100 complete control)
Summary of the method: as §1

corn [22] = assay: Test C preemergence; format: in vivo, Zea mays; conditions: preemergence, 0 to 100 scale (0 no effect, 100 complete control)
Summary of the method: as §1

corn [23] = assay: Test C postemergence; format: in vivo, Zea mays; conditions: 10 days, 0 to 100 scale (0 no effect, 100 complete control)
Summary of the method: as §1

galium = assay: Test C postemergence; format: in vivo, Galium aparine; conditions: 10 days, 0 to 100 scale (0 no effect, 100 complete control)
Summary of the method: as §1

Cc1cccc2c1OC(C(F)(F)F)CN2C(=O)c1cccc(-n2cnc(C(C)C)n2)c1 (single isomer, unassigned) [Compound 303]
Oat, Wild plant response rating (oat, wild [1]; 500 g ai/ha): 90
Oat, Wild plant response rating (oat, wild [1]; Test C, 125 g ai/ha): 50
Pigweed, Palmer plant response rating (pigweed, palmer [2]; 500 g ai/ha): 100
Pigweed, Palmer plant response rating (pigweed, palmer [2]; Test C, 125 g ai/ha): 100
Plant response rating, Pigweed, Palmer (pigweed, palmer [3]; 500 g ai/ha, postemergence): 80
Plant response rating, Pigweed, Palmer (pigweed, palmer [3]; Postemergence, 125 g ai/ha): 40
Plant response rating, Kochia (kochia [4]; 500 g ai/ha, postemergence): 80
Plant response rating, Kochia (kochia [4]; Postemergence, 125 g ai/ha): 70
Plant response rating, Foxtail, Green (green foxtail [5]; 500 g ai/ha, postemergence): 80
Plant response rating, Foxtail, Green (green foxtail [5]; Postemergence, 125 g ai/ha): 50
Barnyardgrass plant response rating (barnyardgrass [6]; 500 g ai/ha): 100
Barnyardgrass plant response rating (barnyardgrass [6]; Test C, 125 g ai/ha): 40
Wheat plant response rating (wheat [7]; 500 g ai/ha): 100
Wheat plant response rating (wheat [7]; Test C, 125 g ai/ha): 70
Plant response rating, Barnyardgrass (Flood) (barnyardgrass [8]): 0
Plant response rating, Sedge, Umbrella (Flood) (sedge, umbrella): 90
Plant response rating, Rice (Flood) (rice): 0
Ryegrass, Italian plant response rating (ryegrass, Italian [9]; 500 g ai/ha): 100
Ryegrass, Italian plant response rating (ryegrass, Italian [9]; Test C, 125 g ai/ha): 90
Soybean plant response rating (soybean [10]; 500 g ai/ha): 100
Soybean plant response rating (soybean [10]; Test C, 125 g ai/ha): 30
Foxtail, Green plant response rating (green foxtail [11]; 500 g ai/ha): 100
Foxtail, Green plant response rating (green foxtail [11]; Test C, 125 g ai/ha): 100
Kochia plant response rating (kochia [12]; 500 g ai/ha): 100
Kochia plant response rating (kochia [12]; Test C, 125 g ai/ha): 70
Plant response rating, Ducksalad (Flood) (ducksalad): 80
Ragweed plant response rating (ragweed [13]; 500 g ai/ha): 70
Ragweed plant response rating (ragweed [13]; Test C, 125 g ai/ha): 0
Plant response rating, Barnyardgrass (barnyardgrass [14]; 500 g ai/ha, postemergence): 70
Plant response rating, Barnyardgrass (barnyardgrass [14]; Postemergence, 125 g ai/ha): 20
Blackgrass plant response rating (blackgrass [15]; 500 g ai/ha): 100
Blackgrass plant response rating (blackgrass [15]; Test C, 125 g ai/ha): 90
Plant response rating, Horseweed (horseweed; 500 g ai/ha, postemergence): 20
Plant response rating, Horseweed (horseweed; Postemergence, 125 g ai/ha): 0
Plant response rating, Ryegrass, Italian (ryegrass, Italian [16]; 500 g ai/ha, postemergence): 90
Plant response rating, Ryegrass, Italian (ryegrass, Italian [16]; Postemergence, 125 g ai/ha): 60
Plant response rating, Ragweed (ragweed [17]; 500 g ai/ha, postemergence): 60
Plant response rating, Ragweed (ragweed [17]; Postemergence, 125 g ai/ha): 50
Plant response rating, Soybean (soybean [18]; 500 g ai/ha, postemergence): 100
Plant response rating, Soybean (soybean [18]; Postemergence, 125 g ai/ha): 100
Plant response rating, Oat, Wild (oat, wild [19]; 500 g ai/ha, postemergence): 70
Plant response rating, Oat, Wild (oat, wild [19]; Postemergence, 125 g ai/ha): 50
Plant response rating, Blackgrass (blackgrass [20]; 500 g ai/ha, postemergence): 100
Plant response rating, Blackgrass (blackgrass [20]; Postemergence, 125 g ai/ha): 90
Plant response rating, Wheat (wheat [21]; 500 g ai/ha, postemergence): 50
Plant response rating, Wheat (wheat [21]; Postemergence, 125 g ai/ha): 30
Corn plant response rating (corn [22]; 500 g ai/ha): 50
Corn plant response rating (corn [22]; Test C, 125 g ai/ha): 0
Plant response rating, Corn (corn [23]; 500 g ai/ha, postemergence): 80
Plant response rating, Corn (corn [23]; Postemergence, 125 g ai/ha): 20
Plant response rating, Galium (galium; 500 g ai/ha, postemergence): 100
Plant response rating, Galium (galium; Postemergence, 125 g ai/ha): 100
